According to US8586768B2, “Design, synthesis and functional characterization of rottlerin analogs” (priority 2009, dated 2013):

Tests used:
Test in all cases: In-vitro kinase profiling, radioisotope screening assay (Signal Chem)
Assay type in all cases: biochemical
PKCε = target: T1, PKCε (Homo sapiens, UniProt Q02156); conditions: for % activity change: 5 μM compound, 50 μM ATP, vs vehicle control, negative = inhibition
T1 construct: purchased Signal Chem (Richmond, BC, Canada)
T1 sequence (Q02156 1-737): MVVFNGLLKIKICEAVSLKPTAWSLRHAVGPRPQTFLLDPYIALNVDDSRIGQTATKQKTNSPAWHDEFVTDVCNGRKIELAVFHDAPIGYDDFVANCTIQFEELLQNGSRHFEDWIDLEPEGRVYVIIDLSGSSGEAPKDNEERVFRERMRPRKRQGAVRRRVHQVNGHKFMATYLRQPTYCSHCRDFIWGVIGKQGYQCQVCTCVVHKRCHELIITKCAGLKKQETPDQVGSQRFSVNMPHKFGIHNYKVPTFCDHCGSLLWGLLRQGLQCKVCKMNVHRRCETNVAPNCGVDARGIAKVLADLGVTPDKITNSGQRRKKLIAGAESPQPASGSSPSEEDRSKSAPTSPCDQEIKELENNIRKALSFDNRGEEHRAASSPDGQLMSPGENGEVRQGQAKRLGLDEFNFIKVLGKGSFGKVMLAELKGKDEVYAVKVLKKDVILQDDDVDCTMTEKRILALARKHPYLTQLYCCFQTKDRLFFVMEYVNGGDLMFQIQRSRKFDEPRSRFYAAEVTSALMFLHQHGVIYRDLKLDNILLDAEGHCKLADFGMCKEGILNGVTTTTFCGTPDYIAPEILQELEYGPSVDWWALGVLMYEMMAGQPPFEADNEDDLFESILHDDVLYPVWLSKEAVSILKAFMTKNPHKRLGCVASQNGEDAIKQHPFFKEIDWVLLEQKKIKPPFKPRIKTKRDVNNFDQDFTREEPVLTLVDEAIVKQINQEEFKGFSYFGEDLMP
Description: (§1) Kinase profiling of PK analogs. The inhibitory effect of lead PK analogs were tested against a panel of 15 protein kinase targets (TABLE 1) to develop better lead candidates without “off” target effects. The selectivity assay was performed at Signal Chem™ (Richmond, BC, Canada) by profiling against protein kinase targets using the “Gold Standard” radioisotope screening assay format. This assay format gave the highest signal noise ratio and allowed the direct measurement of catalytic activity of a protein kinase.
(§2) All assays were performed in triplicate in a 96-well assay format and the % error between triplicates is <10%. Protein kinase assays was performed in the presence of 50 μM ATP at 30° C. for 15 min. The activity of the enzymes in the presence of 5 μM PK analogs was compared to that in the vehicle control and expressed as a percent change in activity relative to that observed in the vehicle control. In TABLE 1, the results are expressed as percent activity change compared to control. The intra-assay variability was determined to be less than 10%. Inhibition of target activity by the compound is shown by a negative value, while activation of target activity is shown by positive value, with values >10% considered to be highly significant.

CamK2a = target: T2, CamK2a (Homo sapiens, UniProt Q9UQM7); conditions: 5 μM compound, 50 μM ATP, vs vehicle control; negative = inhibition
T2 construct: purchased Signal Chem (Richmond, BC, Canada)
Description: as §1, §2

P13K (p110b/p85a) = target: T3, P13K (p110b/p85a) (Homo sapiens, UniProt P42338); conditions: 5 μM compound, 50 μM ATP, vs vehicle control; negative = inhibition
T3 construct: purchased Signal Chem (Richmond, BC, Canada)
Description: as §1, §2

JNK3 = target: T4, JNK3 (Homo sapiens, UniProt P53779); conditions: for % activity change: 5 μM compound, 50 μM ATP, vs vehicle control, negative = inhibition; for inhibited by % compared to control: 5 μM concentration, given as positive inhibition
T4 construct: purchased Signal Chem (Richmond, BC, Canada)
Description: as §1, §2

PKCγ = target: T5, PKCγ (Homo sapiens, UniProt P05129); conditions: 5 μM compound, 50 μM ATP, vs vehicle control; negative = inhibition
T5 construct: purchased Signal Chem (Richmond, BC, Canada)
Description: as §1, §2

ERKI = target: T6, ERKI (Homo sapiens, UniProt P27361); conditions: 5 μM compound, 50 μM ATP, vs vehicle control; negative = inhibition
T6 construct: purchased Signal Chem (Richmond, BC, Canada)
Description: as §1, §2

PKCη = target: T7, PKCη (Homo sapiens, UniProt P24723); conditions: 5 μM compound, 50 μM ATP, vs vehicle control; negative = inhibition
T7 construct: purchased Signal Chem (Richmond, BC, Canada)
Description: as §1, §2

PKCμ = target: T8, PKCμ (Homo sapiens, UniProt Q15139); conditions: 5 μM compound, 50 μM ATP, vs vehicle control; negative = inhibition
T8 construct: purchased Signal Chem (Richmond, BC, Canada)
T8 sequence (Q15139 1-912): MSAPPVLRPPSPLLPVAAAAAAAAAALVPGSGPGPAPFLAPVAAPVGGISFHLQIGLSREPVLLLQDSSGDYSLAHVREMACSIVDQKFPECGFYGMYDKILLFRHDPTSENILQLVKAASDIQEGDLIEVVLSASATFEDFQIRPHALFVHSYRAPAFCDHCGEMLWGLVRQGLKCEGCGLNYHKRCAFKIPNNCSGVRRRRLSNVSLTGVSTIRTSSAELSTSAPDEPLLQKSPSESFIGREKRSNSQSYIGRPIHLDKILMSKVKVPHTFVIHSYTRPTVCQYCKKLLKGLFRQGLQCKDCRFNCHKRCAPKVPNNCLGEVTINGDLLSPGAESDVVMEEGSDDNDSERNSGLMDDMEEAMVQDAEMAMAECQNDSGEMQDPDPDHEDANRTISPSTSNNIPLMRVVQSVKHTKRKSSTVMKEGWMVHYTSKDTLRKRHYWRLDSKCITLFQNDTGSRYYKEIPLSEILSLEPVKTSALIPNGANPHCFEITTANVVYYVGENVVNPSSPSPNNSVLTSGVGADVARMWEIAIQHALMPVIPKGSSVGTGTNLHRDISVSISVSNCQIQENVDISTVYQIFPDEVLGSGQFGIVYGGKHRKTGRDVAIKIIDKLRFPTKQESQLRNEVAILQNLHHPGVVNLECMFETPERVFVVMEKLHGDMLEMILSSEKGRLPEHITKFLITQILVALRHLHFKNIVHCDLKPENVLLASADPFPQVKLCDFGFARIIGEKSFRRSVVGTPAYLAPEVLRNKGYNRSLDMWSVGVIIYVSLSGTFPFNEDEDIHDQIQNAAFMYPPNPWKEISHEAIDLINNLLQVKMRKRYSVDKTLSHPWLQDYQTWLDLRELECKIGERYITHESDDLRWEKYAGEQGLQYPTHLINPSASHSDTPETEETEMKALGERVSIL
Description: as §1, §2

PKCβ = target: T9, PKCβ (Homo sapiens, UniProt P05771); conditions: 5 μM compound, 50 μM ATP, vs vehicle control; negative = inhibition
T9 construct: purchased Signal Chem (Richmond, BC, Canada)
Description: as §1, §2

P38α = target: T10, P38α (Homo sapiens, UniProt Q16539); conditions: 5 μM compound, 50 μM ATP, vs vehicle control; negative = inhibition
T10 construct: purchased Signal Chem (Richmond, BC, Canada)
Description: as §1, §2

AKT1 = target: T11, AKT1 (Homo sapiens, UniProt P31749); conditions: for % activity change: 5 μM compound, 50 μM ATP, vs vehicle control, negative = inhibition
T11 construct: purchased Signal Chem (Richmond, BC, Canada)
Description: as §1, §2

[1] = 5 μM concentration, given as positive inhibition, read-out: inhibited by % compared to control

T11 sequence (P31749 whole entry): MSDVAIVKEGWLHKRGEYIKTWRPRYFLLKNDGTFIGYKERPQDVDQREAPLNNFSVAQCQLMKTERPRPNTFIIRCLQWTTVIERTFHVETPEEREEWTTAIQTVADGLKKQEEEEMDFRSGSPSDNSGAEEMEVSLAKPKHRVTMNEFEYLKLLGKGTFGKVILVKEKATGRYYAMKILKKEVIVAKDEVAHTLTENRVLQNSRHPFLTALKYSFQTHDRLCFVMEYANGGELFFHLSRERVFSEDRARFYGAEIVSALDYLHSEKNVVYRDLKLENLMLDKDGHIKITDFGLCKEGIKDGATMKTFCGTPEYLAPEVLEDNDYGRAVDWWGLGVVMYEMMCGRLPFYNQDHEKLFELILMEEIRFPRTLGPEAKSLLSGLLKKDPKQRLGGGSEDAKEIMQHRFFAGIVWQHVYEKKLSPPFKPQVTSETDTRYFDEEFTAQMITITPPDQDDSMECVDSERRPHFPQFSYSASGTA
T7 sequence (P24723 whole entry): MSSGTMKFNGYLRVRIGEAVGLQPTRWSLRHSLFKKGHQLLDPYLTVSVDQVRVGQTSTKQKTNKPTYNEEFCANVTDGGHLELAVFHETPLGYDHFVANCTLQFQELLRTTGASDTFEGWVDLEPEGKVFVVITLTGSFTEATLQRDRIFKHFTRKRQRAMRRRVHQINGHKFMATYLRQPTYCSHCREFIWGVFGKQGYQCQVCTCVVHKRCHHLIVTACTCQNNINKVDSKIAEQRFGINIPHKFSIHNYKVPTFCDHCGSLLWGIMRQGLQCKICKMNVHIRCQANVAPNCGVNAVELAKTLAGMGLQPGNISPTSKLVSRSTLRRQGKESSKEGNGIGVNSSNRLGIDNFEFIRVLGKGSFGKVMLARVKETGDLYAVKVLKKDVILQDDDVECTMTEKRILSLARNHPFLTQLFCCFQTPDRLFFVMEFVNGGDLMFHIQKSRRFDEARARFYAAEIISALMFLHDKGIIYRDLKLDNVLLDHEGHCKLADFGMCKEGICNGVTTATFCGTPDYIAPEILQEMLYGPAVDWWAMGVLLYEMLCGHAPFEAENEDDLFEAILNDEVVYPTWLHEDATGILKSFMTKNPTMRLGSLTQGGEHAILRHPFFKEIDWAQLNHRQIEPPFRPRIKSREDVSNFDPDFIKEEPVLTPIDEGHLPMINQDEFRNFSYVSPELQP
T2 sequence (Q9UQM7 whole entry): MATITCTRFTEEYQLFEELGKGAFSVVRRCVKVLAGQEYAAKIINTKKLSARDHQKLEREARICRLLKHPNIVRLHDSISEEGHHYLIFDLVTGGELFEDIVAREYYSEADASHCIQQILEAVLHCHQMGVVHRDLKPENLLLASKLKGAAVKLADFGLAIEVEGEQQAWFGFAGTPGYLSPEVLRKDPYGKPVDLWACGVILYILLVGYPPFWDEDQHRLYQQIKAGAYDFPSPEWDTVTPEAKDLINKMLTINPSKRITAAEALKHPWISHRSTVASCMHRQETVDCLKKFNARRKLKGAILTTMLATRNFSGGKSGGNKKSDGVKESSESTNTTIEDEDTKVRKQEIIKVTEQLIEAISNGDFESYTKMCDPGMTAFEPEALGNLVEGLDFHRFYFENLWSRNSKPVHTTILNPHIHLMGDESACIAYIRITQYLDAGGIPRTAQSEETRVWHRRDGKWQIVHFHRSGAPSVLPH
T6 sequence (P27361 whole entry): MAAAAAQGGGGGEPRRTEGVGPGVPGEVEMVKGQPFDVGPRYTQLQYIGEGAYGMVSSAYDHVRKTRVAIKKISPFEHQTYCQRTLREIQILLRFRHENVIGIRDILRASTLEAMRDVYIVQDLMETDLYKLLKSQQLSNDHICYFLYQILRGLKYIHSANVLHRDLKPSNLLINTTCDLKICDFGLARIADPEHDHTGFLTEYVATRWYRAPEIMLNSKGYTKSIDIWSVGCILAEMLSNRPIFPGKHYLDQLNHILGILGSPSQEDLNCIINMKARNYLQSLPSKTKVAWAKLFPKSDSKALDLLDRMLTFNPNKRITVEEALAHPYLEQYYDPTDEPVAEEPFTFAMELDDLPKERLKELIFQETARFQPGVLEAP
T9 sequence (P05771 whole entry): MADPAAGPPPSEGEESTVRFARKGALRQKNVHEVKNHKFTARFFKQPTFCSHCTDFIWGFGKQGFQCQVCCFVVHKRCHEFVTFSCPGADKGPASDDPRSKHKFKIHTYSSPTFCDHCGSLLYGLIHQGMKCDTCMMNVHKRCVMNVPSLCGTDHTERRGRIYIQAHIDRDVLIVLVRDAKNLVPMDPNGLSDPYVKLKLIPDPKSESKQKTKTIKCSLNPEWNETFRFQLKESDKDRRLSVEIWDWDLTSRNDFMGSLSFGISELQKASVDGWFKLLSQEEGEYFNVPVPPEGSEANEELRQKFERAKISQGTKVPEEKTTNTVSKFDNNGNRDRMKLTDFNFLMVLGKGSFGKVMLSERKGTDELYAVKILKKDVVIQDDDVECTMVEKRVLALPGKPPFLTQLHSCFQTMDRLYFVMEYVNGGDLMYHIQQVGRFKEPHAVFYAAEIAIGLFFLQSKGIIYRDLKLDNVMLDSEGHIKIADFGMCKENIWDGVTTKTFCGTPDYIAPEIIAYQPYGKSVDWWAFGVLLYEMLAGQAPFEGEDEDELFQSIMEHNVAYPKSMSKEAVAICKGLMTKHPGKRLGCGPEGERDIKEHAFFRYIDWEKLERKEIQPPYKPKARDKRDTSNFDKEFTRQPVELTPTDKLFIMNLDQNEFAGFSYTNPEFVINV
T10 sequence (Q16539 whole entry): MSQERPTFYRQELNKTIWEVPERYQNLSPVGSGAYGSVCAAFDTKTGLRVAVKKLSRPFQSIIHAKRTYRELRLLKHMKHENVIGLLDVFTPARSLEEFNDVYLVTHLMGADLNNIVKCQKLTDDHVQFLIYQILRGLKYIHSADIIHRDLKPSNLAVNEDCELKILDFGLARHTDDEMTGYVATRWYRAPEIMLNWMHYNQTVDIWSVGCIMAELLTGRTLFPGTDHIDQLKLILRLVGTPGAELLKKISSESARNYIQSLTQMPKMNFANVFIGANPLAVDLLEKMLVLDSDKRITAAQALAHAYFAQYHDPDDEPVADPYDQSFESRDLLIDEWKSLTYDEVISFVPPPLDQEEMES
T4 sequence (P53779 whole entry): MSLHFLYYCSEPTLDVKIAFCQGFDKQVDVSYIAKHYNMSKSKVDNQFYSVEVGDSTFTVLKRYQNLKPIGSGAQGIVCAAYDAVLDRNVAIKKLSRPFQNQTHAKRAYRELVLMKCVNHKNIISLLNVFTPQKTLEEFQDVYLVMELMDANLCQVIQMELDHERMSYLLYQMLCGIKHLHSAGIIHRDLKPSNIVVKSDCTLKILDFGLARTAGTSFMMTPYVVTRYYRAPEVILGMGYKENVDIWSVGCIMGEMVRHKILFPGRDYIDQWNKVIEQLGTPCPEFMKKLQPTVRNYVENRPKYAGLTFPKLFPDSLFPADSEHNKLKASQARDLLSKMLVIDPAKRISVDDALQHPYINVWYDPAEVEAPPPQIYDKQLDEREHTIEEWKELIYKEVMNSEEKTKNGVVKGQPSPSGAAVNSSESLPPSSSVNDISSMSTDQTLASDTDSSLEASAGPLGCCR

SMILES | % activity change (PKCε) [%] | % activity change (CamK2a) [%] | % activity change (P13K (p110b/p85a)) [%] | % activity change (JNK3) [%] | inhibited by % compared to control (JNK3) [%] | % activity change (PKCγ) [%] | % activity change (ERKI) [%] | % activity change (PKCη) [%] | % activity change (PKCμ) [%] | % activity change (PKCβ) [%] | % activity change (P38α) [%] | % activity change (AKT1) [%] | inhibited by % compared to control (AKT1; 5 μM concentration, given as positive inhibition) [%] | inhibition at 5 µM (PKCε; [1]) [%] | inhibition at 5 µM (AKT1; [1]) [%]
Oc1cc(O)c(Cc2c(O)cc(O)cc2O)c(O)c1 [PK103] | 5 | 6 | −6 | −12 | 12 | 9 | 0 | 7 | 6 | 3 | −5 | −6 |  |  | 
CC(=O)c1c(O)c(C)c(O)c(Cc2c(O)c3c(c4c2OC(c2ccccc2)CC4=O)OC(C)(C)C=C3)c1O (stereo not shown) [PK202] | −3 | 6 | −2 | −12 | 12 | 1 | 4 | 15 | 6 | 1 | −1 | −12 | 12 |  | 
CC1(C)C=Cc2c(O)cc(O)c(C(=O)/C=C/c3ccccc3)c2O1 [PK302] | 6 | 5 | −8 | −10 |  | 32 | 3 | 19 | 2 | 6 | −4 | −10 |  |  | 
CC(=O)c1c(O)c(C)c(O)c(Cc2c(O)c3c(c(C(=O)/C=C/c4ccccc4)c2O)OC(C)(C)C=C3)c1O [Rottlerin, (E)-1-[6-[(3-acetyl-2,4,6-trihydroxy-5-methylphenyl)methyl]-5,7-dihydroxy-2,2-dimethylchromen-8-yl]-3-phenylprop-2-en-1-one] | −25 | 7 | −10 | 7 |  | 6 | 3 | 12 | −5 | 0 | −1 | −14 |  | 25 | 14
